We go through three compounds from publication PMC7261172, “Peptides containing the PCNA interacting motif APIM bind to the β-clamp and inhibit bacterial growth and mutagenesis” (Nucleic Acids Research, 2020).

The test system of one series is S.epidermidis (MRSE). Format: cell-based, Staphylococcus epidermidis. Particulars: 24 h. The procedure:
(§1) Briefly, bacterial suspension in Mueller-Hinton Broth was adjusted to 0.5 McFarland and diluted to 5 × 10^5 CFU/ml. The suspension (0.1 ml) was seeded in polypropylene microtiter plates (Greiner), 5 × 10^4 CFU/well. APIM-peptides were added as 10% of the total volume. Initial inoculums were quantified by seeding on agar for verification of the estimated CFU/mL. After 24 hours (h) incubation at 37°C, the microtiter plates were inspected for visible growth.

The next series has as its system E. coli BL21. Format: cell-based, Escherichia coli. Particulars: Mueller-Hinton Broth, 5 × 10^5 CFU/ml, 24 h, 37°C; average of ≥3 independent biological experiments. Here is the method: as §1
Series [1] has as its system E. coli MG1655. Format: cell-based, Escherichia coli. To be noted: Mueller-Hinton Broth, 5 × 10^5 CFU/ml, 24 h, 37°C; average of ≥3 independent biological experiments. Here is the method:
as §1

A further series has as its target T1, E.coli β-clamp (Escherichia coli, UniProt P0A988).
T1 construct: made in house
Briefly: Microscale thermophoresis (MST) β-clamp binding. Particulars: cell penetrating peptides, MST buffer with 2% fetal bovine serum, initial in vitro binding experiments, bounds given. The procedure: Purified E.coli β-clamp ([49]) was labeled using the RED-Maleimide Labelling Kit (NanoTemper Technologies, GmbH) according to the manufacturer's instructions applying a concentration of 20 μM protein at room temperature. The ligands, cell penetrating APIM-peptides, were dissolved and diluted in supplemented Microscale thermophoresis (MST) buffer (50 mM Tris–HCl pH 7.5, 150 mM NaCl, 10 mM MgCl2) with 2% fetal bovine serum and incubated for 10 min in room temperature. Series of 1:1 dilutions (16×), producing ligand concentrations ranging from 500 μM to 15 nM, were made. Each ligand solution was further diluted 1:1 with fluorescent labeled β-clamp (diluted in MST buffer, 3 nM) and incubated for 10 min. Fluorescence was measured for each protein-ligand sample using a Monolith NT.115 instrument (20% MST power and 100% LED power) and Monolith NT Standard Treated Capillaries (both NanoTemper Technologies, GmbH). To calculate the KD’s, fluorescence signals were plotted and analyzed using the supplemented software (NT Analysis software version 1.5.41 and MO.affinity analysis version 2.2.4, NanoTemper Technologies). Denaturation with SD-buffer (4% sodium dodecyl sulphate and 40 mM DTT) and re-measurement of total fluorescence confirmed that the observed change in fluorescence was due to ligand binding event.

Series [2] has as its system clinical isolates of multidrug-resistant S. epidermidis. The experiment in a line: Inhibition of growth (OD600) of clinical isolates. It counts as cell-based, Staphylococcus epidermidis. To be noted: most sensitive clinical isolate (isolate 1); same molar concentration as the full-length RWLVK-peptide; Figure 1B. The procedure: Growth experiments were performed in Luria-Bertani broth (LB) media, Tryptic soy broth (TSB) or LB agar at 37°C, antibiotic selections were performed using the following concentrations: kanamycin 30 μg/ml, chloramphenicol 34 μg/ml and rifampicin 100 μg/ml.

In another series the test system is E. coli MG1655 cells. The experiment in a line: Replication assay (flow cytometry of DNA content, Rif/Cpx run-out). Format: cell-based, Escherichia coli. To be noted: up to 15 μM peptide (above MIC), then Rif and Cpx run-out. The procedure: E. coli MG1655 cells were grown at 37°C in glucose-CAA medium (AB minimal medium ([46]) supplemented with 10 μg/ml thiamine, 0.2% glucose and 0.5% casamino acids) for several generations to ensure balanced growth. At an OD600 = 0.15, the cells were added 2, 4 or 6 μM RWLVK* peptide or 2, 4, 6 or 15 μM R11 peptide. Growth was continued for 2–5 min. After peptide treatment, cells were either harvested directly or treated with rifampicin (Rif) (300 μg/ml) and cephalexin (Cpx) (10 μg/ml) for the time equivalent of three to four generations before harvesting. Both directly harvested and Rif and Cpx treated cells were re-suspended in TE buffer (10 mM Tris–HCl, pH 8.0, 1 mM EDTA, pH 8.0) and fixed in 70% ethanol. Fluorescein isothiocyanate (FITC, Sigma-Aldrich) ([47]) was used for protein staining (representing mass), and Hoechst 33258 was used for DNA staining (Sigma-Aldrich) ([48]). Flow cytometry was performed with an LSR-II flow cytometer equipped with a 488 nm argon-ion laser and a 355 nm krypton laser (BD Biosciences), and the results were analyzed using FlowJo software (Tree Star, Inc.). Rif and Cpx inhibit the initiation of replication and cell division, respectively. Cells cannot initiate a new round of replication after these drugs are added but can complete ongoing rounds of replication (without dividing). […]

In series [3] the test system is E. coli MG1655. The experiment in a line: Rif^R mutagenicity assay, added cell penetrating peptides. It counts as cell-based, Escherichia coli. To be noted: spontaneous; for Mutation frequency, added peptides: E. coli MG1655, cell penetrating peptide 20 μM, average ± SEM, RWLVK n = 11, RFSLK n = 4, RWLK n = 7, R11 n = 5, control 10.5 ± 2.2. Here is the method:
(§2) The rifampicin resistance (Rif^R) mutagenicity assay was performed as described in ([50]) with some modifications. Briefly, E. coli BL21 expressing peptide variants were induced with (IPTG) (1 mM) at OD600 = 0.3–0.4 and cultured at 37°C, for 2 h before harvested. Bacteria from large culture volumes (up to 50 ml) were plated in order to obtain ∼100 Rif^R colonies per dish. The anti-mutagenic effect of cell penetrating APIM-peptides in E. coli MG1655 was done by adding 20 μM peptide at OD600 = 0.01, and the cells were cultured for 30 min. Next, the cells were pelleted and washed with PBS before UV-irradiated in (50 μl) PBS (2 mJ UVC/cm^2), re-suspended in 2.5 ml LB and cultured in 37°C for 2 h before plating on LB plates with and without Rif (100 μg/ml). The number of Rif^R colonies/ total CFU was determined after 1 and 2 days, respectively. Significance was calculated by using a two-tailed, paired, students t-test. Gentamicin resistance (Gen^R) was examined using a gentamicin sensitive clinical isolate of S. epidermidis. […] The cultures were grown in a shaking incubator (37°C) and were re-inoculated (1:100) every 24 h in fresh TSB and supplements. The cultures were plated on blood agar plates with and without gentamicin (10 mg/l) every day for 4 days, and the frequency of Gen^R colonies was determined by calculating the number of Gen^R colonies/total CFU.

In a further series the target is β-clamp. To be noted: read-out: KD for the β-clamp; cited from earlier work. The text has this: Next, we examined the direct interaction between the β-clamp and octamer peptides containing RWLVK and RALVK (i.e. without the cell penetrating part of the peptide) by SPR.
The next series has as its system MRSA 43484. Briefly: Murine skin wound infection model. Particulars: topical.
The test system of series [4] is gentamicin sensitive clinical isolate of S. epidermidis. The experiment in a line: Gentamicin resistance (Gen^R) mutation frequency assay. It counts as cell-based, Staphylococcus epidermidis. To be noted: peptide 3 μM, 4 days, daily re-inoculation 1:100 in TSB, n≥ 4; Figure 4B. Here is the method:
as §2

T1 sequence (P0A988 whole entry): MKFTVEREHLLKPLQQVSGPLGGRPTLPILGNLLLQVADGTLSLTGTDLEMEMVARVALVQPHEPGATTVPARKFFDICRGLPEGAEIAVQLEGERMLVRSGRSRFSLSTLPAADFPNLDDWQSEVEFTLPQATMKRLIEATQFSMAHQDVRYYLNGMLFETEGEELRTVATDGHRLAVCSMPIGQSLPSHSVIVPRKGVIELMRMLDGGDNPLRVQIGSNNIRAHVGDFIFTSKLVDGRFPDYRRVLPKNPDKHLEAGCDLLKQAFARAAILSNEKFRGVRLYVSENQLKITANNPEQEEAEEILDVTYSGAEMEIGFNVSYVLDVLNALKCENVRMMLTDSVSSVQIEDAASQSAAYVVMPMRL
Method for MRSA 43484: The experimental procedure is modified from a previously described skin infection model in mice ([52]). A total of 32 Balb/C female mice (18–22 g, Taconic, Denmark) were used for the experiment. The mice were treated orally with analgesia, 45 μl Nurofen®junior (Novartis 20 mg/ml ∼30 mg/kg), 30–60 min before the experiment. The mice were anesthetized with 0.15 ml diluted Zoletil mix (2 ml Zoletil mix + 5.2 ml sterile saline + 2.8 ml Torbugesix 1:100) before the fur was removed on a 2 × 3 cm area of the back with an electric shaver and a razor. At last, a skin lesion was made on each mouse with a dermal curette (Miltex 335710). A total of 10 μl inoculum containing 10^7 CFU MRSA 43484 (in saline) was added to a 1 cm^2 area of the skin lesion of each mouse. One group of animals (six mice) were sacrificed 1 day after inoculation, before any treatment was given, to quantify the inoculum. The remaining mice were given topical treatment twice a day (9 a.m and 3 p.m) for 3 days; APIM-peptide (RFSLK, Innovagen SE, 12.8 mg/ml in 1% methyl cellulose gel containing 10% glycerol) or Fusidic acid 2% ointment (LeoPharma). A volume of 50 μl was used for each treatment, spread out on the skin lesion. […] The treated animals and the control group were sacrificed on day 4, one day after the last treatment. […]

In the case of `N=C(N)NCCC[C@H](NC(=O)[C@H](CCCNC(=N)N)NC(=O)[C@H](CCCNC(=N)N)NC(=O)[C@H](CCCNC(=N)N)NC(=O)[C@H](CCCNC(=N)N)NC(=O)[C@H](CCCNC(=N)N)NC(=O)[C@H](CCCNC(=N)N)NC(=O)[C@H](CCCNC(=N)N)NC(=O)[C@H](CCCNC(=N)N)NC(=O)[C@H](CCCNC(=N)N)NC(=O)[C@@H](N)CCCNC(=N)N)C(N)=O` [R11, reference compound], the “Minimal Inhibitory Concentration (MIC) S.epidermidis (MRSE)” value in the series on S.epidermidis (MRSE) came to 12 µM. In the series with E. coli BL21, the “Minimal Inhibitory Concentration (MIC) E. coli BL21” value stood at 11 µM. Also, the “Minimal Inhibitory Concentration (MIC) E. coli MG1655” value in the series on E. coli MG1655 [1] was 14.5 µM. The “KD for the β-clamp (MST)” value on E.coli β-clamp is “no binding was detected”. In series [2], the “Inhibition of growth (OD600), % of untreated parallel” value was “no effect”. Further, the “Inhibition of DNA replication” value in the series on E. coli MG1655 cells is “did not have any effect”. Also, the “Effect of added cell penetrating peptide on the mutation frequency” value in the series on E. coli MG1655 [3] (E. coli MG1655, 20 μM) is listed as “did not affect the mutation frequency”. Also, the “Mutation frequency, added peptides” value in the series with E. coli MG1655 [3] came out at 7.2 ± 3.9 Rif^R/10^8 CFU.
As a reminder, the Kd is the concentration at which binding is half-saturated. Consider Ac-EQVELEFD [Pol III peptide], for which the Kd at β-clamp was about 2000 nM.
As for “Ac-MDRFSLKWKKKRKIRRRRRRRRRRR-NH2 [RFSLK]”, in the series with S.epidermidis (MRSE), the “Minimal Inhibitory Concentration (MIC) S.epidermidis (MRSE)” value was determined as 3 µM. Further, the “Minimal Inhibitory Concentration (MIC) E. coli BL21” value with E. coli BL21 came to 4 µM. The “Minimal Inhibitory Concentration (MIC) E. coli MG1655” value with E. coli MG1655 [1] was determined as 7.5 µM. The “Bacterial load in the infected lesions (CFU/skin lesion) on day 4” value with MRSA 43484 (50 μl twice a day for 3 days, 12.8 mg/ml (3.5 mM) in 1% methyl cellulose gel with 10% glycerol, compared to controls, Figure 5) is recorded as “significantly reduced the bacterial load”. In addition, the “Toxicity of the APIM-peptide gel” value with MRSA 43484 (twice a day for 3 days, mice) is “no toxicity”. For the same compound, on E.coli β-clamp (read-out: KD for the β-clamp (MST)), the dissociation constant (Kd) is under 50000 nM. In addition, the “Mutation frequency (Gen^R/10^8 CFU) compared to the control, peptide alone” value in [4] is reported as “did not change the mutation frequency”. The “Mutation frequency, added peptides” value in the series on E. coli MG1655 [3] is on record as 4.1 ± 1.6 * Rif^R/10^8 CFU.
